In patent US20070128217A1 (priority 2003, published 2007):

Legend:
[1] = tested on: control sera (pooled serum of ten healthy LUMC hospital workers; commercial negative donor pooled serum from the Dutch bloodbank); type: binding, human; parameters: Binding of Control serum LUMC to linear peptides / Binding of Control serum Blood-bank to linear peptides / Binding of Control serum LUMC to looped peptides / Binding of Control Serum Blood-Bank to Looped peptides / Binding of Control serum LUMC to linear peptides of the protein M of SARS-CoV Urbani / Binding of Control serum Blood-bank to linear peptides of the protein M of SARS-CoV Urbani / Binding of Control serum LUMC to looped peptides of the protein M of SARS-CoV Urbani / Binding of Control Serum Blood-Bank to Looped peptides of the protein M of SARS-CoV Urbani: unit not given here
[2] = tested on: antibodies in sera from SARS patients (sera 1a, 1b, 2, 6, 37, 62, London, SARS-yellow, SARS-green); type: binding, human; parameters: Binding of serum 6 to linear peptides of protein X1 of SARS-CoV Urbani / Binding of serum 37 to linear peptides of protein X1 of SARS-CoV Urbani / Binding of serum 6 to looped/cyclic peptide (PEPSCAN-ELISA) / Binding of serum 37 to looped/cyclic peptide (PEPSCAN-ELISA) / Binding of serum 37 to looped/cyclic peptides of protein X1 of SARS-CoV Urbani / Binding of serum 6 to linear peptides of protein X2 / Binding of serum 37 to linear peptides of protein X2 / Binding of serum 37 to looped/cyclic peptides of protein X2 of SARS-CoV Urbani / Binding of serum 6 to linear peptides of protein M of SARS-CoV Urbani / Binding of serum 37 to linear peptides of protein M of SARS-CoV Urbani / Binding of serum 6 to looped/cyclic peptides of protein M of SARS-CoV Urbani / Binding of serum 37 to looped/cyclic peptides of protein M of SARS-CoV Urbani / Binding of serum 6 to linear peptides of protein X3 of SARS-CoV Urbani / Binding of serum 37 to linear peptides of protein X3 of SARS-CoV Urbani / Binding of serum 37 to looped/cyclic peptides of protein X3 of SARS-CoV Urbani / Binding of serum 6 to linear peptides of protein X4 of SARS-CoV Urbani / Binding of serum 37 to linear peptides of protein X4 of SARS-CoV Urbani / Binding of serum 37 to looped/cyclic peptides of protein X4 of SARS-CoV Urbani / Binding of serum 6 to linear peptides of protein X5 of SARS-CoV Urbani / Binding of serum 37 to linear peptides of protein X5 of SARS-CoV Urbani / Binding of serum 37 to looped/cyclic peptides of protein X5 of SARS-CoV Urbani / Binding of serum 6 to linear peptides of protein N of SARS-CoV Urbani / Binding of serum 37 to linear peptides of protein N of SARS-CoV Urbani / Binding of serum 6 to linear peptide (PEPSCAN-ELISA) / Binding of serum 1a to looped/cyclic peptides of protein N of SARS-CoV Urbani / Binding of serum 1b to looped/cyclic peptides of protein N of SARS-CoV Urbani / Binding of serum 2 to looped/cyclic peptides of protein N of SARS-CoV Urbani / Binding of serum 6 to looped/cyclic peptides of protein N of SARS-CoV Urbani / Binding of serum 37 to looped/cyclic peptides of protein N of SARS-CoV Urbani / Binding of serum 62 to looped/cyclic peptides of protein N of SARS-CoV Urbani / Binding of serum London to looped/cyclic peptides of protein N of SARS-CoV Urbani / Binding of serum SARS-green to looped/cyclic peptides of protein N of SARS-CoV Urbani: unit not given here
[3] = tested on: rabbit serum obtained by immunizing a rabbit with the SARS-CoV strain Frankfurt 1; type: binding; parameters: Binding of a rabbit serum to linear peptides / Binding of a rabbit serum to looped peptides / Rabbit serum linear peptides / Rabbit serum looped peptides / Binding of a rabbit serum to linear peptides of protein N of SARS-CoV Urbani (Rabbit serum linear peptides) / Binding of a rabbit serum to looped/cyclic peptides of protein N of SARS-CoV Urbani (Rabbit serum looped peptides): unit not given here

Sequence: IGFLFLAWIMLLQFA
- Binding of Control Serum Blood-Bank to Looped peptides of the protein M of SARS-CoV Urbani [1]: 0.7
- Binding of Control serum Blood-bank to linear peptides of the protein M of SARS-CoV Urbani [1]: 0.7
- Binding of Control serum LUMC to linear peptides of the protein M of SARS-CoV Urbani [1]: 0.7
- Binding of Control serum LUMC to looped peptides of the protein M of SARS-CoV Urbani [1]: 0.8
- Binding of serum 1a to linear peptides of protein M of SARS-CoV Urbani [2]: 0.7
- Binding of serum 1a to looped/cyclic peptides of protein M of SARS-CoV Urbani [2]: 0.8
- Binding of serum 1b to linear peptides of protein M of SARS-CoV Urbani [2]: 0.6
- Binding of serum 1b to looped/cyclic peptides of protein M of SARS-CoV Urbani [2]: 0.7
- Binding of serum 2 to linear peptides of protein M of SARS-CoV Urbani [2]: 0.5
- Binding of serum 2 to looped/cyclic peptides of protein M of SARS-CoV Urbani [2]: 0.6
- Binding of serum 6 to linear peptides of protein M of SARS-CoV Urbani [2]: 0.9
- Binding of serum 6 to looped/cyclic peptides of protein M of SARS-CoV Urbani [2]: 0.9
- Binding of serum 37 to linear peptides of protein M of SARS-CoV Urbani [2]: 0.4
- Binding of serum 37 to looped/cyclic peptides of protein M of SARS-CoV Urbani [2]: 0.7
- Binding of serum 62 to linear peptides of protein M of SARS-CoV Urbani [2]: 0.5
- Binding of serum 62 to looped/cyclic peptides of protein M of SARS-CoV Urbani [2]: 0.8
- Binding of serum London to linear peptides of protein M of SARS-CoV Urbani [2]: 0.6
- Binding of serum London to looped/cyclic peptides of protein M of SARS-CoV Urbani [2]: 0.3
- Binding of serum SARS-green to linear peptides of protein M of SARS-CoV Urbani [2]: 0.5
- Binding of serum SARS-green to looped/cyclic peptides of protein M of SARS-CoV Urbani [2]: 0.3
- Binding of serum SARS-yellow to linear peptides of protein M of SARS-CoV Urbani [2]: 0.2
- Binding of serum SARS-yellow to looped/cyclic peptides of protein M of SARS-CoV Urbani [2]: 0.5
- Rabbit serum linear peptides [3]: 0.2
- Rabbit serum looped peptides [3]: 0.3

Sequence: HSSSLTSLLKTHRMC
- Binding of Control Serum Blood-Bank to Looped peptides [1]: 0.5
- Binding of Control serum Blood-bank to linear peptides [1]: 0.8
- Binding of Control serum LUMC to linear peptides [1]: 0.4
- Binding of Control serum LUMC to looped peptides [1]: 0.5
- Binding of serum 1a to linear peptides of protein X2 [2]: 0.6
- Binding of serum 1a to looped/cyclic peptides of protein X2 of SARS-CoV Urbani [2]: 0.4
- Binding of serum 1b to linear peptides of protein X2 [2]: 0.5
- Binding of serum 1b to looped/cyclic peptides of protein X2 of SARS-CoV Urbani [2]: 0.4
- Binding of serum 2 to linear peptides of protein X2 [2]: 0.3
- Binding of serum 2 to looped/cyclic peptides of protein X2 of SARS-CoV Urbani [2]: 0.3
- Binding of serum 6 to linear peptides of protein X2 [2]: 0.5
- Binding of serum 6 to looped/cyclic peptides of protein X2 of SARS-CoV Urbani [2]: 0.2
- Binding of serum 37 to linear peptides of protein X2 [2]: 0.5
- Binding of serum 37 to looped/cyclic peptides of protein X2 of SARS-CoV Urbani [2]: 0.3
- Binding of serum 62 to linear peptides of protein X2 [2]: 0.6
- Binding of serum 62 to looped/cyclic peptides of protein X2 of SARS-CoV Urbani [2]: 0.4
- Binding of serum London to linear peptides of protein X2 [2]: 0.5
- Binding of serum London to looped/cyclic peptides of protein X2 of SARS-CoV Urbani [2]: 0.2
- Binding of serum SARS-green to linear peptides of protein X2 [2]: 0.5
- Binding of serum SARS-green to looped/cyclic peptides of protein X2 of SARS-CoV Urbani [2]: 0.3
- Binding of serum SARS-yellow to linear peptides of protein X2 [2]: 0.4
- Binding of serum SARS-yellow to looped/cyclic peptides of protein X2 of SARS-CoV Urbani [2]: 0.4
- Binding of a rabbit serum to linear peptides [3]: 0.2
- Binding of a rabbit serum to looped peptides [3]: 0.5

Sequence: PLMESELVIGAVIIR
- Binding of Control Serum Blood-Bank to Looped peptides of the protein M of SARS-CoV Urbani [1]: 0.9
- Binding of Control serum Blood-bank to linear peptides of the protein M of SARS-CoV Urbani [1]: 1.0
- Binding of Control serum LUMC to linear peptides of the protein M of SARS-CoV Urbani [1]: 0.8
- Binding of Control serum LUMC to looped peptides of the protein M of SARS-CoV Urbani [1]: 0.8
- Binding of serum 1a to linear peptides of protein M of SARS-CoV Urbani [2]: 0.7
- Binding of serum 1a to looped/cyclic peptides of protein M of SARS-CoV Urbani [2]: 0.7
- Binding of serum 1b to linear peptides of protein M of SARS-CoV Urbani [2]: 0.6
- Binding of serum 1b to looped/cyclic peptides of protein M of SARS-CoV Urbani [2]: 0.6
- Binding of serum 2 to linear peptides of protein M of SARS-CoV Urbani [2]: 0.7
- Binding of serum 2 to looped/cyclic peptides of protein M of SARS-CoV Urbani [2]: 0.7
- Binding of serum 6 to linear peptides of protein M of SARS-CoV Urbani [2]: 0.4
- Binding of serum 6 to looped/cyclic peptides of protein M of SARS-CoV Urbani [2]: 0.8
- Binding of serum 37 to linear peptides of protein M of SARS-CoV Urbani [2]: 0.7
- Binding of serum 37 to looped/cyclic peptides of protein M of SARS-CoV Urbani [2]: 0.8
- Binding of serum 62 to linear peptides of protein M of SARS-CoV Urbani [2]: 0.5
- Binding of serum 62 to looped/cyclic peptides of protein M of SARS-CoV Urbani [2]: 0.8
- Binding of serum London to linear peptides of protein M of SARS-CoV Urbani [2]: 0.3
- Binding of serum London to looped/cyclic peptides of protein M of SARS-CoV Urbani [2]: 0.2
- Binding of serum SARS-green to linear peptides of protein M of SARS-CoV Urbani [2]: 0.5
- Binding of serum SARS-green to looped/cyclic peptides of protein M of SARS-CoV Urbani [2]: 0.3
- Binding of serum SARS-yellow to linear peptides of protein M of SARS-CoV Urbani [2]: 0.2
- Binding of serum SARS-yellow to looped/cyclic peptides of protein M of SARS-CoV Urbani [2]: 0.7
- Rabbit serum linear peptides [3]: 0.2
- Rabbit serum looped peptides [3]: 0.1
